Laboratory results: patent EP4538258A1, “IMIDAZOLIDINYL VANILLIC ACID ETHER DERIVATIVE AND USE THEREOF” (Hefei Institute of Pharmaceutical Industry Co., Ltd., priority 2022, dated 2023)
Structures can show the parent of a compound that is named as a salt. Where two headings read alike, the source gives them in different places. Blank lines part the entries; values can stand above or below the compound they belong to.

How the values were obtained:
[1] = test system: arteriovenous bypass thrombi; assay: Antithrombotic activity in vivo: arteriovenous bypass thrombosis in rats; parameters: species or system SD rats; details: single gavage 15 mg/kg; for inhibition at 15 mg/kg: Rattus norvegicus, po, vs blank control; for Thrombus wet weight: 1 h after administration, blood flow 15 min; for Thrombus wet weight / Thrombus dry weight: x±s, n=8; for Thrombus dry weight: thread dried at 70°C
Experimental: 104 SD rats (purchased from Weitong Lihua Experimental Animal Technology Co., Ltd., certificate number: 20211103Aazz0619000910), male, weighing 180-220 g, were randomly divided into 13 groups according to body weight after 7 days of adaptive feeding, with 8 rats in each group, namely, normal control group, compound A group, compound A methyl ester group, and Example 1-10 compound groups respectively. Each group was given corresponding drugs by gavage (dosage was 15 mg/kg), and the normal control group was given an equal volume of solvent, all of which were given by single gavage. One hour after the last administration, the rats were anesthetized with 3% chloral hydrate intraperitoneally, and the right common carotid artery and left external jugular vein were isolated in a supine position. A polyethylene tube was taken with an inner diameter of 1.5 mm and a length of 10 cm, a 6 cm long silk thread (preweighed) was inserted into it, and the polyethylene tube was filled with normal saline solution of heparin (50 U/ml). One end of the polyethylene tube was inserted into the left external jugular vein, heparin (50 U/kg) was injected, and the other end was inserted into the right common carotid artery. After blood flow was opened for 15 minutes, the blood flow was interrupted and the silk thread was quickly taken out and weighed. The total weight minus the original silk thread weight was the wet weight of the thrombus. The silk thread was placed in an oven for drying at 70°C. The dry weight of the thrombus was obtained by weighing the silk thread minus the original silk thread weight, and the inhibition rate was calculated. [formula] [formula]

[2] = Pharmacokinetics in vivo in rats after gavage; parameters: species or system SD male rats; details: rat, p.o. 15 mg/kg (calculated as Compound A), mean value
Experimental: Eighteen SD male rats (purchased from Weitong Lihua Experimental Animal Technology Co., Ltd., certificate number: 20211103Aazz0619000910), weighing 240-280 g, were randomly divided into 6 groups, with 3 rats in each group. The animals were fasted overnight before administration. On the day of administration, the compounds of Examples 3, 4, 5, 6, Compound A, and Compound A methyl ester were gavaged to the animals in each groups respectively, and the dosage was 15 mg/kg (calculated as Compound A). Before administration and 0.25, 0.5, 1, 2, 4, 6, 8, and 24 h after administration, 0.15 mL of blood was collected from the animals through the jugular sinus and placed in an EDTA-K2 anticoagulant tube containing 3 µL of dichlorvos aqueous solution (10 mg/mL). After centrifugation, plasma was collected, and was placed in the sample, and then 10 µL of plasma sample was taken, 500 µL of acetonitrile containing IS (verapamil 5 ng·mL^-1, glibenclamide 50 ng·mL^-1, tolbutamide 200 ng·mL^-1, and diclofenac 200 ng·mL^-1) was added, vortexed for 10 min, and then centrifuged at 3700 rpm for 10 min, and then 70 µL of supernatant and 70 µL of water were added, and vortexed for 10 min. An aliquot of 2 µL of the mixture was injected into the LC-MS/MS system (Triple Quad 5500+: LC-MS-MS-022) to measure blood concentration of the compounds. […]

[3] = read-out: Inhibition rate (thrombus dry weight)
[4] = read-out: Inhibition rate (thrombus wet weight)

Structure (SMILES): COc1cc(C(=O)OCOC(=O)OC(C)C)ccc1OCCn1ccnc1 [Example 5, ((isopropoxycarbonyl)oxy)methyl-4-(2-(1H -imidazol-1-yl)ethoxy)-3-methoxybenzoate]
inhibition at 15 mg/kg [1, 3]: 55.9%
inhibition at 15 mg/kg [1, 4]: 53.5%
Thrombus wet weight [1]: 47.0±8.7^★★**## mg
Thrombus dry weight [1]: 15.0±4.5^★★*## mg

MRTo-t [2]: 6.5 h
Structure (SMILES): COC(=O)c1ccc(OCCn2ccnc2)c(OC)c1 [Compound A methyl ester, reference compound]
inhibition at 15 mg/kg [1, 3]: 32.4%
inhibition at 15 mg/kg [1, 4]: 29.4%
Thrombus wet weight [1]: 71.3±8.7^★★ mg
Thrombus dry weight [1]: 23.0±8.2^★★ mg

Structure (SMILES): COc1cc(C(=O)O)ccc1OCCn1ccnc1 [Compound A]
MRTo-t [2]: 5.4 h

Structure (SMILES): COc1cc(C(=O)OC(C)OC(C)=O)ccc1OCCn1ccnc1 (stereo not drawn) [Example 6, 1-acetoxyethyl-4-(2-(1H-imidazol-1-yl)ethoxy)-3-methoxybenzoate]
inhibition at 15 mg/kg [1, 3]: 58.1%
inhibition at 15 mg/kg [1, 4]: 55.4%
Thrombus wet weight [1]: 45.1±8.6^★★**## mg
Thrombus dry weight [1]: 14.3±5.0^★★**## mg

Structure (SMILES): COc1cc(C(=O)Oc2ccc(C[C@@H](N)C(=O)O)cc2)ccc1OCCn1ccnc1.Cl [Example 10, (R)-4-(4-(2-(1H-imidazol-1-yl)ethoxy)-3-methoxybenzoyloxy)phenylalanine hydrochloride]
inhibition at 15 mg/kg [1, 3]: 55.1%
inhibition at 15 mg/kg [1, 4]: 47.5%
Thrombus wet weight [1]: 53.1±11.8^★★**## mg
Thrombus dry weight [1]: 15.3±2.8^★★*## mg

Structure (SMILES): CCCOC(=O)c1ccc(OCCn2ccnc2)c(OC)c1 [Example 1, propyl 4-(2-(1H-imidazol-1-yl)ethoxy)-3-methoxybenzoate]
inhibition at 15 mg/kg [1, 3]: 52.9%
inhibition at 15 mg/kg [1, 4]: 45.9%
Thrombus wet weight [1]: 54.8±12.7^★★*## mg
Thrombus dry weight [1]: 16.0±3.4^★★*## mg

Structure (SMILES): COc1cc(C(=O)Nc2ccc(C[C@@H](N)C(=O)O)cc2)ccc1OCCn1ccnc1 [Example 8, (R)-3-(4-(4-(2-(1H-imidazol-1-yl)ethoxy)-3-methoxybenzamido)phenyl)-2-propionic acid hydrochloride]
inhibition at 15 mg/kg [1, 3]: 57%
inhibition at 15 mg/kg [1, 4]: 48.6%
Thrombus wet weight [1]: 52.0±13.5^★★**## mg
Thrombus dry weight [1]: 14.6±3.8^★★**## mg

Structure (SMILES): COc1cc(C(=O)Oc2ccc(C[C@H](N)C(=O)O)cc2)ccc1OCCn1ccnc1.Cl [Example 9, (S)-4-(4-(2-(1H-imidazol-1-yl)ethoxy)-3-methoxybenzoyloxy)phenylalanine hydrochloride]
inhibition at 15 mg/kg [1, 3]: 57.4%
inhibition at 15 mg/kg [1, 4]: 49.4%
Thrombus wet weight [1]: 51.1±12.7^★★**## mg
Thrombus dry weight [1]: 14.5±6.2^★★**## mg

Structure (SMILES): COc1cc(C(=O)Nc2ccc(C[C@H](N)C(=O)O)cc2)ccc1OCCn1ccnc1.Cl [Example 7, (S)-4-(4-(2-(1H-imidazol-1-yl)ethoxy)-3-methoxybenzamido)phenylalanine hydrochloride]
inhibition at 15 mg/kg [1, 3]: 52.6%
inhibition at 15 mg/kg [1, 4]: 46.2%
Thrombus wet weight [1]: 54.4±9.8^★★*## mg
Thrombus dry weight [1]: 16.1±3.3^★★*## mg

Structure (SMILES): COc1cc(C(=O)OCCCCCC(=O)O)ccc1OCCn1ccnc1 [Example 3, 6-(4-(2-(1H -imidazol-1-yl)ethoxy)-3-methoxybenzoyloxy)hexanoic acid]
inhibition at 15 mg/kg [1, 3]: 64%
inhibition at 15 mg/kg [1, 4]: 53.3%
Thrombus wet weight [1]: 47.3±6.3^★★**## mg
Thrombus dry weight [1]: 12.3±5.7^★★**## mg

Structure (SMILES): COc1cc(C(=O)OC(C)C)ccc1OCCn1ccnc1.Cl [Example 2, isopropyl 4-(2-(1H-imidazol-1-yl)ethoxy)-3-methoxybenzoate hydrochloride]
inhibition at 15 mg/kg [1, 3]: 54.8%
inhibition at 15 mg/kg [1, 4]: 48.3%
Thrombus wet weight [1]: 52.3±10.5^★★**## mg
Thrombus dry weight [1]: 15.4±5.0^★★*## mg
